Activity calls are given as the source filed them.
Columns and labels:
Format in all cases: functional, organism-based
Proteus vulgaris = experiment: Antibacterial activity against Proteus vulgaris
Lactococcus lactis = experiment: Antibacterial activity against Streptococcus lactis
Klebsiella pneumoniae = experiment: Antibacterial activity against Klebsiella ozaenae; settings: subsp. ozaenae

Measured: Activity

CC(=O)O[C@]1(C)[C@@H]2C=C(C(C)(C)O)C(=O)C[C@@]2(C)CC[C@H]1OC(=O)C(C)(O)C(C)Cl (stereo partly drawn)
active: Proteus vulgaris | Lactococcus lactis | Klebsiella pneumoniae

From ChEMBL document CHEMBL1149717, “Three New Eudesmane Sesquiterpenes from Pluchea arguta” (J Nat Prod, 1992)
